Literature values, collected in paper PMC7651685 (Psychopharmacology, 2020).

Key:
[1] = test system: dopamine efflux in the nucleus accumbens; design: method as in Rowley et al. [2017]; settings: rat nucleus accumbens microdialysis; ref Rowley et al. [2017]; cited from earlier work
DAT = settings: ref Markowitz et al. [2006]; read-out: Affinity for DAT, IC50; cited from earlier work
[2] = no reference given; cited from earlier work

Row | Compound | Time of peak of dopamine efflux [1] [min] | further results
1 | C[C@H](N)Cc1ccccc1 [d-amphetamine] | 40 | –
3 | CC(C)(N)Cc1ccccc1 [phentermine] | 40 | –
4 | O=C(O)C(c1ccccc1)C1CCCCN1 (stereo not shown) [ritalinic acid] | – | Pharmacological activity [2]: pharmacologically inactive
